Experimental data from PubChem BioAssay (NCI).
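In this assay, cells in 96-well plates receive the compound at five concentrations for 48 hours. Endpoints are linearly interpolated between the surrounding concentrations. Here, GI50 denotes the concentration required for 50% inhibition of growth. At the TGI there is no net growth.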

Key:
Assay in all cases: NCI tumour cell line growth inhibition, 48 h
[1] = system: OVCAR-8 ovarian
[2] = system: HOP-92 NSCLC
[3] = system: LOX IMVI melanoma
[4] = system: CAKI-1 renal
[5] = system: BT-549 breast
[6] = system: HCC-2998 colon
[7] = system: UACC-62 melanoma
[8] = system: SNB-19 CNS
[9] = system: OVCAR-4 ovarian
[10] = system: HT29 colon
[11] = system: U251 CNS
[12] = system: RPMI-8226 leukemia
[13] = system: MCF7 breast
[14] = system: SK-MEL-5 melanoma
[15] = system: NCI-H23 lung
[16] = system: NCI-H226 lung
[17] = system: 786-0 renal
[18] = system: HL-60(TB) leukemia
[19] = system: MOLT-4 leukemia
[20] = system: M14 melanoma
[21] = system: SF-268 CNS
[22] = system: OVCAR-3 ovarian
[23] = system: PC-3 prostate
[24] = system: A498 renal
[25] = system: MALME-3M melanoma
[26] = system: HS 578T breast
[27] = system: NCI-H522 lung
[28] = system: OVCAR-5 ovarian
[29] = system: DU-145 prostate
[30] = system: UACC-257 melanoma
[31] = system: SNB-75 CNS
[32] = system: SK-OV-3 ovarian
[33] = system: SW-620 colon
[34] = system: MDA-MB-231 breast
[35] = system: SK-MEL-2 melanoma
[36] = system: EKVX NSCLC
[37] = system: UO-31 renal
[38] = system: SF-295 CNS
[39] = system: KM12 colon
[40] = system: A549 NSCLC
[41] = system: SF-539 CNS
[42] = system: IGROV1 ovarian
[43] = system: TK-10 renal
[44] = system: SN12C renal
[45] = system: HCT-116 colon
[46] = system: SR leukemia
[47] = system: MDA-MB-435
[48] = system: RXF 393 renal
[49] = system: HOP-62 NSCLC
[50] = system: HCT-15 colon
[51] = system: SK-MEL-28 melanoma
[52] = system: CCRF-CEM leukemia
[53] = system: K-562 leukemia
[54] = system: NCI-H460 lung
[55] = system: COLO 205 colon
[56] = system: T-47D breast
[57] = system: NCI/ADR-RES ovarian
[58] = system: ACHN renal

C=C[C@@H]1CCC/C=C/[C@@H]2C[C@H](O)C[C@H]2[C@H](O)/C=C/C(=O)O1
GI50 [1]: 440 nM
TGI [1]: > 100000 nM
GI50 [2]: 702 nM
TGI [2]: 5950 nM
GI50 [3]: 269 nM
TGI [3]: 815 nM
GI50 [4]: 1890 nM
TGI [4]: > 50300 nM
GI50 [5]: 543 nM
TGI [5]: > 37100 nM
GI50 [6]: 409 nM
TGI [6]: 2920 nM
GI50 [7]: 545 nM
TGI [7]: > 100000 nM
GI50 [8]: 1450 nM
TGI [8]: > 100000 nM
GI50 [9]: 407 nM
TGI [9]: > 94600 nM
GI50 [10]: 342 nM
TGI [10]: 1600 nM
GI50 [11]: 941 nM
TGI [11]: > 100000 nM
GI50 [12]: 448 nM
TGI [12]: 3400 nM
GI50 [13]: 388 nM
GI50 [14]: 175 nM
TGI [14]: 331 nM
GI50 [15]: 475 nM
TGI [15]: 16600 nM
GI50 [16]: 265 nM
TGI [16]: 784 nM
GI50 [17]: 257 nM
TGI [17]: 606 nM
GI50 [18]: 2230 nM
TGI [18]: > 25200 nM
GI50 [19]: 1160 nM
TGI [19]: > 31400 nM
GI50 [20]: 387 nM
TGI [20]: > 28900 nM
GI50 [21]: 440 nM
TGI [21]: > 100000 nM
GI50 [22]: 427 nM
TGI [22]: 4180 nM
GI50 [23]: 785 nM
TGI [23]: > 100000 nM
GI50 [24]: 261 nM
TGI [24]: 763 nM
GI50 [25]: 274 nM
TGI [25]: 1060 nM
GI50 [26]: 477 nM
TGI [26]: > 100000 nM
GI50 [27]: 1520 nM
TGI [27]: 4240 nM
GI50 [28]: 664 nM
TGI [28]: > 100000 nM
GI50 [29]: 3820 nM
TGI [29]: > 100000 nM
GI50 [30]: 317 nM
TGI [30]: > 100000 nM
GI50 [31]: 397 nM
TGI [31]: > 100000 nM
GI50 [32]: 709 nM
TGI [32]: > 100000 nM
GI50 [33]: 361 nM
TGI [33]: 1570 nM
GI50 [34]: 379 nM
TGI [34]: 1110 nM
GI50 [35]: 832 nM
TGI [35]: 8530 nM
GI50 [36]: 543 nM
TGI [36]: > 100000 nM
GI50 [37]: 370 nM
TGI [37]: > 100000 nM
GI50 [38]: 912 nM
TGI [38]: > 100000 nM
GI50 [39]: 350 nM
TGI [39]: 1350 nM
GI50 [40]: 469 nM
TGI [40]: > 100000 nM
GI50 [41]: 650 nM
TGI [41]: > 100000 nM
GI50 [42]: 1700 nM
TGI [42]: > 100000 nM
GI50 [43]: 554 nM
TGI [43]: 19800 nM
GI50 [44]: 1530 nM
TGI [44]: > 100000 nM
GI50 [45]: 866 nM
TGI [45]: 2490 nM
GI50 [46]: 1640 nM
TGI [46]: > 28000 nM
GI50 [47]: 435 nM
TGI [47]: > 100000 nM
GI50 [48]: 247 nM
TGI [48]: 680 nM
GI50 [49]: 1330 nM
TGI [49]: > 100000 nM
GI50 [50]: 2230 nM
TGI [50]: > 100000 nM
GI50 [51]: 340 nM
TGI [51]: 1200 nM
GI50 [52]: 2420 nM
TGI [52]: > 100000 nM
GI50 [53]: 3180 nM
TGI [53]: > 100000 nM
GI50 [54]: 3760 nM
TGI [54]: > 100000 nM
GI50 [55]: 224 nM
TGI [55]: 441 nM
GI50 [56]: 1210 nM
TGI [56]: 4280 nM
GI50 [57]: 365 nM
TGI [57]: 11600 nM
GI50 [58]: 1030 nM
TGI [58]: > 100000 nM
